These results are taken from PMC12647017, “Discovery and optimization of a synthetic small protein domain targeting antibodies” (Frontiers in Bioengineering and Biotechnology, 2025).

The subject of one data set is human polyclonal IgG. The experiment in a line: Screening ELISA of phage display clones (crude extracts) against human polyclonal IgG. The data set is classed as binding. To be noted: crude extract of clones from 6th panning round, 1 µg/well human polyclonal IgG, blocked 3% (w/v) BSA in TBS, 50 µL extract 1 h at 37 °C, Anti-HA tag-HRP, ABTS, Abs405nm. The arrangement: key: High: high binders (Abs>0.4); Moderate: moderate signal. The protocol:
The biopanning of the previously developed WWp5_4 library ([Dias et al., 2025]) (Figures 1A,B) against human polyclonal IgG was performed for six rounds, after which an enrichment of ligands was observed (Supplementary Table S3). To assess the binding of each clone to the target, 192 clones were selected and expressed at small scale in 96-deep well blocks, following conditions previously optimised. After cell lysis, the supernatant containing the soluble fraction was used for ELISA assays. The results in Figure 1C illustrate the difference in the absorbance profile of the screened ligands. […] From these 26, only 21 presented high quality for reliable sequencing results. The sequence alignment and diversity of the different binders is represented in Table 1 and Figure 2A.
Small Scale Protein Expression and screening ELISA: From the output of the 6th round of panning, 94 isolated colonies were peaked into two sterile 96-well deep well 2mL round-bottom plates and grown with 200 µL of LB with ampicillin, 125 rpm, 37 °C, overnight (master plates). The following day, to one of the master plates was added glycerol to achieve a final concentration of 15% and was stored at -80 °C. Regarding the other master plate, 12 µL of this culture was added to another sterile 96-well deep well 2 mL round-bottom plate with 1.2 mL of LB with ampicillin and was grown at 37 °C, 125 rpm until OD600nm achieved 0.5-0.6. After this, protein expression was induced with 1 mM IPTG and continued incubation with the previous conditions. The following day, the cultures were sonicated for 30 minutes in ice-water bath and centrifuged for 10 minutes at 2500 x g. The supernatant was collected and transferred to a new microplate to be used in the screening for the ELISA (crude extract). For the ELISA, three microplates were tested: A) Sample binding plate; B) Negative control plate; C) Expression plate. On the sample binding plate, 1 µg/well of human polyclonal IgG was immobilized on the plate at 4 °C, overnight. On the following day, the target was removed, and the wells were washed once with TBS, then the plate was blocked with 300 µL 3% (w/v) BSA in TBS for 1 hour at 37 °C. After this, the wells were washed once with TBS, and were then incubated with 50 µL of crude extract (containing WW domain) for 1 hour at 37 °C. The plate was then washed 5 times with TBS-T, and then incubated with 100 µL of the Anti-HA tag-HRP conjugated antibody (diluted 1:1000) for 1 hour at 37 °C. The plate was then washed once with TBS-T and 4 times with TBS, and then incubated with the substrate ABTS for 1 hour at the dark at 37 °C. The results were then analysed in a microplate reader (TECAN) and the Abs405nm was then measured.
For the Negative control plate the protocol was the same as for the Binding microplate, except for the target immobilization. Instead of having IgG, only coating buffer was added. This plate allows to detect clones that unspecific bind to BSA present in the Blocking Buffer. For the Expression plate the protocol started at the step of incubation with the crude extract, and from there the steps were the same as the Binding microplate. This plate allows to detect clone’s basal expression level.

A short description of data set [1]: Solubility / precipitation observed during production, dialysis and purification. The data set is classed as physicochemical. As to the method:
Therefore, after expression the soluble fractions were further centrifuged at 42,000 g for 20 min at 4 °C. As the samples were diluted (∼5 mg/mL in 25 mL lysis buffer), the soluble fractions were lyophilized and resuspended in 4 mL of water. The samples were dialyzed (Membranes Spectra Pre-Treated 1 kDa, Carl Roth) to Binding buffer without imidazole (20 mM Sodium Phosphate, 500 mM Sodium Chloride pH 7.4) for 24 h at 16 °C. The samples were quantified by […] (typically ∼6 mg/mL), this solution was diluted 1:2 in Binding buffer (20 mM Sodium Phosphate, 500 mM Sodium Chloride, 20 mM imidazole pH 7.4) and purified in a gravitational flow with 6 mL of resin (IMAC Sepharose 6 Fast Flow (Ni^2+), Cytiva) packed in a PD-10 column. The column was prepared using the indications of the manufacturer. The binding of the protein to the column was maximized by an incubation for 1 h at room temperature in agitation at 40rpm. The resin was washed 4 x column volumes (CV) with binding buffer. The elution as achieved by incubation for 15min with elution buffers. We used a gradient with 3 x CV elution buffer 1 (binding buffer with 100 mM imidazole) and 3 x CV elution buffer 2 (binding buffer with 200 mM imidazole).
The most enriched elutions in WW domains (60%–70% purity) were combined and dialysed against PBS1x (10 mM Na2HPO4, 1.8 mM KH2PO4, 2.7 mM KCl, 137 mM NaCl pH 7.4) with routine changes of buffer up to 48 h at 16 °C. Following the samples were concentrated with a Amicon-Ultra15 3 kDa MWCO (Millipore) with centrifugation conditions 4,900 g, 30 min, 4 °C. The final samples were quantified by BCA assay.
Size Exclusion Chromatography (SEC). The samples were further purified by SEC to achieve 90% purity in a AKTA system (Cytiva). The column Superdex 75 Increase 10/300 GL (29148721, Cytiva) was washed with water and equilibrated 2CV in PBS1x, as described by the manufacturer. As calibrants we prepare a mixture: 2 mg/mL of Bovine Serum Albumin (66 kDa, BP9702-100, FisherScientific), Ovalbumin (42 kDa, A5503-1G, Sigma), Chicken Lysozyme ([…], 62,971–10G-F, Fluka) and hPin1_WW chemically synthesized (5 kDa, produced in ([Dias et al., 2015])) in PBS 1x, this sample was filtered with 0.2 µm PES (514–0073, VWR) and analysed. The operation conditions: flow 0.5 mL/min, 0.05 CV in PBS1x and injection of 250 µL and run for 2 CV with PBS 1x at 16 °C. The same method was used for the WW domain samples. After purifications samples were quantified for total protein by BCA assay, as described previously and used for characterization.

A further data set relates to human IgG. The experiment in a line: Microscale Thermophoresis (MST) with IgG-FITC. The data set is classed as binding. The protocol:
For MST assays of E6, IgG was conjugated with fluoresceine isothiocyanate (FITC) using standard protocols. The conjugated IgG-FITC was used at a fixed concentration of 50nM and 16 serial dilutions of E6 protein (from 23.5 µM to 0.7 nM) were made in 50 mM MOPS 0.05% (v/v) Tween-20 pH 7.
For MST assays of E6_M2_T2, the target was hIgG-FITC (F9636, Sigma) at a constant concentration of 25 nM. For the E6_M2_T2 ligand, 16 samples were prepared in variable concentrations starting from 695 nM and using a serial dilution of 1:2 up to a minimum concentration of […] using PBS1x-0.05% (v/v) Tween-20 pH7.4.
Samples were transferred to a standard capillary (Monolith NT.115 Capillary, Nanotemper) with the following settings: medium MST-power, excitation power at 20%, with excitation in Nano-Blue, with thermostat at 25 °C. The signal of the samples was read in triplicates using a Monolith NT.115 (Nanotemper) and the signal was processed in the manufacturer software with FitModel: Kd and Hill. The binding parameters (KD and EC50) and were estimated automatically in the MST software.

For data set [2], the target named is human polyclonal IgG (human). The experiment in a line: ELISA; hIgG immobilised (1 ug/well) in 0.1 M sodium bicarbonate pH 8.6 on Maxisorp plates; blocked with 5% soya milk in PBS; 100 uL soluble fraction (~0.065 mg/mL total protein), 2 h at room temperature; detection with anti-His-HRP and ABTS, Abs 405 nm. Background: In an ELISA, binding on a coated surface is turned into a signal by an enzyme label.

As to “SMGLPPGWDEYKT FEIVM GKTYYYNH MHTD KTSTWTDPRMSS [Clone D10, WW domain clone against human IgG, loops FEIVM / MHTD]”, the ELISA signal result in the data set on human polyclonal IgG is “Moderate”.

As for “SMGLPPGWDEYKT VLYSG GKTYYYNH IMSL KTSTWTDPRMSS [Clone H6, WW domain clone against human IgG, loops VLYSG / IMSL]”, in the data set with human polyclonal IgG, the ELISA signal entry is given as “High (high binders (Abs>0.4))”.

For the molecule “SMGLPPGWDEYKT ALSRW GKTYYYNH DWNP KTSTWTDPRMSS [Clone H7, WW domain clone against human IgG, loops ALSRW / DWNP]”, the ELISA signal result with human polyclonal IgG is listed as “Moderate”.

With “SMGLPPGWDEYKT YRVMV GKTYYYNH LYRL KTSTWTDPRMSS [Clone H3, WW domain clone against human IgG, loops YRVMV / LYRL]”, in the data set with human polyclonal IgG, the ELISA signal entry is “High (high binders (Abs>0.4))”.

“SMGLPPGWDEYKT TLAGL GKTYYYNH YTPG KTSTWTDPRMSS [Clone G9, WW domain clone against human IgG, loops TLAGL / YTPG]”: the ELISA signal entry in the data set on human polyclonal IgG is “Moderate”.

Turning to “SMGLPPGWDEYKT SLSRP GKTYYYNH EEPS KTSTWTDPRMSS [Clone G3, WW domain clone against human IgG, loops SLSRP / EEPS]”, the ELISA signal entry with human polyclonal IgG is listed as “High (high binders (Abs>0.4))”.

For “SMGLPPGWDEYKT AFSRA GKTYYYNH YLEE KTSTWTDPRMSS [Clone G5, WW domain clone against human IgG, loops AFSRA / YLEE]”, in the data set on human polyclonal IgG, the ELISA signal result is on record as “High (high binders (Abs>0.4))”.

As for “SMGLPPGWDEYKT TMAWL GKTYYYNH YTPG KTSTWTDPRMSS [Clone A5, WW domain clone against human IgG, loops TMAWL / YTPG]”, in the data set with human polyclonal IgG, the ELISA signal entry was “High (high binders (Abs>0.4))”.

What is called EC50 is the concentration at which the effect is half-maximal. A word on the Kd: it is the concentration at which binding is half-saturated. “C S GK LPPGW E E R KTRRFKLG R TYYYNHHILSKTS Q W EH PR G SSS GK LPPGW E E R KTRRFKLG R TYYYNHHILSKTS Q W EH PR G SS [Clone E6_M2_T2]”: the “aggregation compared with the monomeric version” value in data set [1] is on record as “aggregates less than the monomeric version”. In data set [1] (IMAC purification without chaotropic agents), the “solubility compared with native counterpart E6” value is “higher solubility than the native counterpart”. Further, the “precipitation during size exclusion chromatography” value in data set [1] (Superdex 75 Increase 10/300 GL, PBS1x, 16 °C) was “did not observe any precipitation”. Besides, the “stability compared with E6_M2” value in data set [1] (after dialysis and during size exclusion chromatography) is recorded as “more stable”. In addition, the “precipitation / solubility after dialysis” value in data set [1] (dialysis against PBS1x pH 7.4, up to 48 h at 16 °C) is “always soluble”. In addition, the EC50 in the data set with human IgG (E6_M2_T2, hIgG-FITC 25 nM, ligand from 695 nM 1:2 dilutions, PBS1x-0.05% (v/v) Tween-20 pH 7.4, 25 °C, n = 3) came to 157 nM. Further, on human IgG (E6_M2_T2, hIgG-FITC 25 nM, ligand from 695 nM 1:2 dilutions, PBS1x-0.05% (v/v) Tween-20 pH 7.4, 25 °C, n = 3, read-out: dissociation constant, KD), the Kd was 62 ± 14 nM. At human IgG (human IgG), the “KD relative to KD of E6 native sequence” value is listed as “half of the dissociation constant estimated for the E6 native sequence”.

As to “SMGLLPGWDEYKT WVVDV GKTYYYNH FKVS KTSTWTDPRMSS [Clone H8, WW domain clone against human IgG, loops WVVDV / FKVS]”, in the data set on human polyclonal IgG, the ELISA signal entry is reported as “Moderate”.

With “SMGLPPGWDEYKT SMALL GKTYYYNH YTPG KTSTWTDPRMSS [Clone C8, WW domain clone against human IgG, loops SMALL / YTPG]”, the ELISA signal result in the data set with human polyclonal IgG was “Moderate”.

For SMGLPPGWDEYKTRRFKLGKTYYYNHHILSKTSTWTDPRMSS (designed binder) [E6 in pET21a with C-terminal histidine tag], the ELISA binding signal relative to the negative control (E. coli Rosetta extract) in data set [2] stood at 1.5 fold.

In data set [2], CSGKLPPGWEERKTRRFKLGRTYYYNHHILSKTSQWEHPRGSS (designed binder) [E6_M2] came in with an ELISA binding signal relative to the negative control (E. coli Rosetta extract) of 2 fold and an ELISA binding signal relative to the scaffold framework WWp5 4 of 2 fold.
